Assay results taken from ChEMBL document CHEMBL1649500, “GS-9191 is a novel topical prodrug of the nucleotide analog 9-(2-phosphonylmethoxyethyl)guanine with antiproliferative activity and possible utility in the treatment of human papillomavirus lesions” (Antimicrob Agents Chemother, 2009).
Activity calls are given as the source filed them. No cut-off for these calls is given here.

Experiments:
SiHa [1] = assay: Inhibition of DNA synthesis in HPV-transformed human SiHa cells assessed as decrease in BrdU incorporation after 3 to 6 hrs by ELISA; format: functional, cell-based
HeLa [2] = assay: Antiproliferative activity against HPV-transformed human HeLa cells after 7 days by SRB assay; format: functional, cell-based; conditions: 168 h
[3] = system: Cottontail rabbit papillomavirus; assay: Antiviral activity against Cottontail rabbit papillomavirus infected in New Zealand White rabbit assessed as decrease in pailloma size at 0.1% administered topically measured on day 48; format: functional, Kappapapillomavirus 2
[4] = Antiproliferative activity against HPV-transformed human C4I cells after 7 days by SRB assay; format: functional, cell-based; conditions: C-4I, 168 h
SiHa [5] = assay: Cell cycle arrest in HPV-transformed human SiHa cells assessed as accumulation at G2/M phase at 10 times EC50 after 48 hrs by flow cytometry; format: functional
Ca-Ski [6] = assay: Induction of apoptosis in HPV-transformed human CaSki cells at 2.7 to 270 nM after 3 to 7 days by propidium iodide staining-based flow cytometry; format: functional, cell-based
[7] = Antiproliferative activity against PHF after 7 days by SRB assay; set-up: species or system Homo sapiens
[8] = system: Cottontail rabbit papillomavirus; assay: Antiviral activity against Cottontail rabbit papillomavirus infected in New Zealand White rabbit assessed as effect on viral growth rate at 0.5% administered topically measured on day 48; format: functional; conditions: Kappapapillomavirus 2
SCC-9 = assay: Antiproliferative activity against HPV-non-transformed human SCC9 cells after 7 days by SRB assay; format: functional, cell-based; conditions: SCC-9, 168 h
[9] = system: Cottontail rabbit papillomavirus; assay: Antiviral activity against Cottontail rabbit papillomavirus infected in New Zealand White rabbit assessed as decrease in pailloma size at 0.01% administered topically measured on day 48; format: functional, Kappapapillomavirus 2
SiHa [10] = assay: Induction of apoptosis in HPV-transformed human SiHa cells assessed as viable cells at 2.7 nM after 7 days by propidium iodide staining-based flow cytometry; format: functional; conditions: 168 h, read-out: Activity
SiHa [11] = assay: Drug metabolism in human SiHa cells assessed as PMEG AUC (0 to 32 hrs) at 1 uM by HPLC analysis; format: ADME, cell-based; set-up: dose 1 uM, time < 32 hr
[12] = Cell cycle arrest in human PHK cells assessed as accumulation at S phase at 10 times EC50 after 48 hrs by flow cytometry; format: cell-based
ME-180 = assay: Antiproliferative activity against HPV-transformed human ME180 cells after 7 days by SRB assay; format: functional, cell-based; conditions: ME-180, 168 h
SiHa [13] = assay: Induction of apoptosis in HPV-transformed human SiHa cells assessed as viable cells at 27 nM after 3 days by propidium iodide staining-based flow cytometry; format: functional; conditions: 72 h, read-out: Activity
SiHa [14] = assay: Induction of apoptosis in HPV-transformed human SiHa cells assessed as apoptotic cells at 27 nM after 7 days by propidium iodide staining-based flow cytometry; format: functional
SiHa [15] = assay: Induction of apoptosis in HPV-transformed human SiHa cells assessed as viable cells at 270 nM after 3 days by propidium iodide staining-based flow cytometry; format: functional; conditions: 72 h, read-out: Activity
[16] = Antiproliferative activity against human PHK after 7 days by SRB assay
[17] = Drug metabolism in human CaSki cells assessed as PMEG AUC (0 to 32 hrs) at 1 uM by HPLC analysis; format: ADME, cell-based; set-up: time < 32 hr, dose 1 uM; conditions: ca-ski
SiHa [18] = assay: Induction of apoptosis in HPV-transformed human SiHa cells assessed as viable cells at 2.7 nM after 3 days by propidium iodide staining-based flow cytometry; format: functional; conditions: 72 h, read-out: Activity
SiHa [19] = assay: Antiproliferative activity against HPV-transformed human SiHa cells after 7 days by SRB assay; format: functional, cell-based; conditions: 168 h
[20] = Drug metabolism in human CK cells assessed as PMEG AUC (0 to 32 hrs) at 1 uM by HPLC analysis; format: ADME, cell-based; set-up: time < 32 hr, dose 1 uM
HeLa [21] = assay: Induction of apoptosis in HPV-transformed human HeLa cells at 2.7 to 270 nM after 3 to 7 days by propidium iodide staining-based flow cytometry; format: functional, cell-based
SiHa [22] = assay: Induction of apoptosis in HPV-transformed human SiHa cells assessed as apoptotic cells at 270 nM after 7 days by propidium iodide staining-based flow cytometry; format: functional
SiHa [23] = assay: Cell cycle arrest in HPV-transformed human SiHa cells assessed as accumulation at G0/G1 phase at 10 times EC50 after 48 hrs by flow cytometry; format: functional
SiHa [24] = assay: Inhibition of DNA synthesis in HPV-transformed human SiHa cells assessed as decrease in BrdU incorporation after 6 to 9 hrs by ELISA; format: functional, cell-based
SiHa [25] = assay: Induction of apoptosis in HPV-transformed human SiHa cells assessed as viable cells at 27 nM after 7 days by propidium iodide staining-based flow cytometry; format: functional; conditions: 168 h, read-out: Activity
HT-3 = assay: Antiproliferative activity against HPV-non-transformed human HT3 cells after 7 days by SRB assay; format: functional, cell-based; conditions: HT-3, 168 h
SiHa [26] = assay: Induction of apoptosis in HPV-transformed human SiHa cells assessed as apoptotic cells at 270 nM after 3 days by propidium iodide staining-based flow cytometry; format: functional
SiHa [27] = assay: Induction of apoptosis in HPV-transformed human SiHa cells assessed as apoptotic cells at 2.7 nM after 3 days by propidium iodide staining-based flow cytometry; format: functional
SiHa [28] = assay: Induction of apoptosis in HPV-transformed human SiHa cells assessed as viable cells at 270 nM after 7 days by propidium iodide staining-based flow cytometry; format: functional; conditions: 168 h, read-out: Activity
SCC-4 = assay: Antiproliferative activity against HPV-non-transformed human SCC4 cells after 7 days by SRB assay; format: functional, cell-based; conditions: SCC-4, 168 h
[29] = Cell cycle arrest in human PHK cells assessed as accumulation at G2/M phase at 10 times EC50 after 48 hrs by flow cytometry; format: cell-based
[30] = Antiproliferative activity against NHBE cells after 7 days by SRB assay; format: cell-based; conditions: Homo sapiens, 168 h
[31] = Drug metabolism in human lung fibroblast assessed as cPrPMEDAP AUC (0 to 32 hrs) at 1 uM by HPLC analysis; format: ADME; set-up: dose 1 uM, time < 32 hr
SiHa [32] = assay: Inhibition of DNA synthesis in HPV-transformed human SiHa cells assessed as decrease in BrdU incorporation after 3 hrs by ELISA; format: functional, cell-based
SiHa [33] = assay: Induction of apoptosis in HPV-transformed human SiHa cells assessed as apoptotic cells at 27 nM after 3 days by propidium iodide staining-based flow cytometry; format: functional
[34] = Cell cycle arrest in human PHK cells assessed as accumulation at G0/G1 phase at 10 times EC50 after 48 hrs by flow cytometry; format: cell-based
SiHa [35] = assay: Inhibition of DNA synthesis in HPV-transformed human SiHa cells assessed as decrease in BrdU incorporation after 48 to 51 hrs by ELISA; format: functional, cell-based
[36] = system: Cottontail rabbit papillomavirus; assay: Antiviral activity against Cottontail rabbit papillomavirus infected in New Zealand White rabbit assessed as decrease in pailloma size at 0.3% administered topically measured on day 48; format: functional, Kappapapillomavirus 2
[37] = Antiproliferative activity against human lung fibroblast after 7 days by SRB assay; conditions: 168 h
[38] = Antiproliferative activity against HPV-transformed human MS751 cells after 7 days by SRB assay; format: functional, cell-based; conditions: MS751, 168 h
Ca-Ski [39] = assay: Antiproliferative activity against HPV-transformed human CaSki cells after 7 days by SRB assay; format: functional, cell-based; conditions: 168 h
SiHa [40] = assay: Induction of apoptosis in HPV-transformed human SiHa cells assessed as apoptotic cells at 2.7 nM after 7 days by propidium iodide staining-based flow cytometry; format: functional
Ca-Ski [41] = assay: Cell cycle arrest in HPV-transformed human CaSki cells assessed as accumulation at S phase at 10 times EC50 after 48 hrs by flow cytometry; format: functional, cell-based
SiHa [42] = assay: Inhibition of DNA synthesis in HPV-transformed human SiHa cells assessed as decrease in BrdU incorporation after 24 to 27 hrs by ELISA; format: functional, cell-based
SiHa [43] = assay: Cell cycle arrest in HPV-transformed human SiHa cells assessed as accumulation at S phase at 10 times EC50 after 48 hrs by flow cytometry; format: functional
A-431 = assay: Cell cycle arrest in human A431 cells assessed as accumulation at S phase at 10 times EC50 after 48 hrs by flow cytometry; format: functional, cell-based
SiHa [44] = assay: Inhibition of DNA synthesis in HPV-transformed human SiHa cells assessed as decrease in BrdU incorporation after 72 to 75 hrs by ELISA; format: functional, cell-based
[45] = Antiproliferative activity against human CK after 7 days by SRB assay

For `CC(C)COC(=O)[C@H](Cc1ccccc1)NP(=O)(COCCn1cnc2c(NC3CC3)nc(N)nc21)N[C@@H](Cc1ccccc1)C(=O)OCC(C)C` [GS-9191], the EC50 (SiHa [1]) was 7.8 nM, the EC50 (HeLa [2]) was 0.71 nM and the “inhibition (INH)” value [3] was 70%. The EC50 [4] was 0.44 nM, the Activity (SiHa [5]) was 7.3% and the Activity (Ca-Ski [6]) was “Active”. For the same compound, the EC50 [7] was 4.75 nM, the Activity [8] was “inactive” and the EC50 (SCC-9) was 15.3 nM. For the same compound, the “inhibition (INH)” value [9] was 53%, the viability at 0.0027 µM (SiHa [10]) was 65.5% and the AUC (SiHa [11]) was 1960 µM·h. It also gave an Activity [12] of 36.1%, an EC50 (ME-180) of 1.83 nM and a viability at 0.027 µM (SiHa [13]) of 83.7%. The Activity (SiHa [14]) was 82.2%, the viability at 0.27 µM (SiHa [15]) was 79.6% and the EC50 [16] was 2.91 nM. It also gave an AUC [17] of 170 µM·h, a viability at 0.0027 µM (SiHa [18]) of 95.2% and an EC50 (SiHa [19]) of 0.03 nM. For the same compound, the AUC [20] was 33.4 µM·h, the Activity (HeLa [21]) was “Active” and the Activity (SiHa [22]) was 84.1%. For the same compound, the Activity (SiHa [23]) was 27.1%, the EC50 (SiHa [24]) was 1 nM and the viability at 0.027 µM (SiHa [25]) was 17.4%. It also gave an EC50 (HT-3) of 5.42 nM, an Activity (SiHa [26]) of 19.6% and an Activity (SiHa [27]) of 3.4%. For the same compound, the viability at 0.27 µM (SiHa [28]) was 15.5%, the EC50 (SCC-4) was 5.03 nM and the Activity [29] was 7.5%. The EC50 [30] was 0.98 nM, the AUC [31] was 835 µM·h and the EC50 (SiHa [32]) was over 74 nM. The Activity (SiHa [33]) was 14.6%, the Activity [34] was 56.4% and the EC50 (SiHa [35]) was 7.9 nM. The “inhibition (INH)” value [36] was 70%, the EC50 [37] was 7.44 nM and the EC50 [38] was 0.04 nM. For the same compound, the EC50 (Ca-Ski [39]) was 2.03 nM, the Activity (SiHa [40]) was 33.1% and the Activity (Ca-Ski [41]) was “Active”. The EC50 (SiHa [42]) was 1.8 nM, the Activity (SiHa [43]) was 65.6% and the Activity (A-431) was “Active”. The EC50 (SiHa [44]) was 11.5 nM and the EC50 [45] was 2.1 nM.
